Assay results from US20040204577A1, “Novel peptide-forming enzyme gene” (Ajinomoto Co., Inc., priority 2003, published 2004).
Where a SMILES comes first, the peptide text is derived from it.

Columns and labels:
[1] = system: peptide-forming enzyme (Mono S fraction enzyme); assay: Enzyme substrate specificity (1)-(10), (13), (14): peptide production; format: biochemical, Empedobacter brevis; design: key to Formed peptide: +: those peptides for which production was confirmed but which were unable to be quantified due to the absence of a standard; a trace amount; conditions: pH 9.0, 25° C., 3 hours
Experimental: Ester specificity was examined in the case of using L-amino acid ester for the carboxy component. 2 μl of the same enzyme fraction as used in Example 5 was added to 100 μl of 100 mM borate buffer (pH 9.0) containing the carboxy components indicated in Table 4 at 100 mM, 200 mM L-glutamine and 10 mM EDTA, and allowed to react at 25° C. for 2 hours. HCl represents hydrochloride in Table 4.
Peptide production was examined in the case of using L-alanine methyl ester for the carboxy component and using various L-amino acids for the amine component.
Peptide production was examined in the case of using various types of L-amino acid methyl esters for the carboxy component and using L-glutamine for the amine component. 2 μl of the same enzyme fraction as used in Example 5 was added to 100 μl of 100 mM borate buffer (pH 9.0) containing the L-amino acid methyl ester hydrochloride salts (AA-OMe.HCl) shown in Table 6 at 100 mM, 150 mM L-glutamine and 10 mM EDTA, and allowed to react at 25° C. for 3 hours. […] Furthermore, Tween-80 was added to the reaction system to a final concentration of 0.1% in the case of using L-Trp-OMe and L-Tyr-OMe.
Peptide production was examined in the case of using various L-amino acid methyl esters for the carboxy component and various L-amino acids for the amine component. 2 μl of the same enzyme fraction as used in Example 5 was added to 100 μl of 100 mM borate buffer (pH 9.0) containing the L-amino acid methyl ester hydrochloride salts (AA-OMe.HCl) shown in Table 7 at 100 mM, the L-amino acids shown in Table 7 at 150 mM and 10 mM EDTA, and allowed to react at 25° C. for 3 hours. The “tr” indicates a trace amount. Furthermore, Tween-80 was added to the reaction system to a final concentration of 0.1% in the case of using L-Trp-OMe.
Peptide production was examined in the case of using the L or D forms of various amino acid methyl esters for the carboxy component, and the L or D forms of various amino acids for the amine component. 2 μl of the same enzyme fraction as used in Example 5 was added to 100 μl of 100 mM borate buffer (pH 9.0) containing the various amino acid methyl ester hydrochloride salts (AA-OMe HCl) shown in Table 8 at 100 mM, the various amino acids shown in Table 8 at 150 mM and 10 mM EDTA, and allowed to react at 25° C. for 3 hours. The “tr” indicates a trace amount.
Peptide production was examined using various L-amino acid amides for the carboxy component, and various L-amino acids for the amine component. 2 μl of the same enzyme fraction as that used in Example 5 was added to 100 μl of 100 mM borate buffer (pH 9.0) containing the L-amino acid amide hydrochloride salt (M-NH2.HCl) shown in Table 9 at 100 mM, the L-amino acids shown in Table 9 at 150 mM and 10 mM EDTA, and allowed to react at 25° C. for 3 hours.
Peptide production was examined in the case of using various L-alanine methyl esters for the carboxy component and C-protected L-amino acids for the amine component. 2 μl of the same enzyme fraction as used in Example 5 was added to 100 μl of 100 mM borate buffer (pH 9.0) containing the L-alanine methyl ester hydrochloride hydrochloride salt (Ala-OMe.HCl) shown in Table 10 at 100 mM, the L-amino acid amide hydrochloride salts shown in Table 10 at 150 mM and 10 mM EDTA, and allowed to react at 25° C. for 3 hours.
Peptide production was examined in the case of using various amino acid methyl esters for the carboxy component and methylamine for the amine component. 2 μl of the same enzyme fraction as used in Example 5 was added to 100 μl of 100 mM borate buffer (pH 9.0) containing the amino acid methyl ester hydrochloride salt (M-OMe.HCl) shown in Table 11 at 100 mM, the methylamine shown in Table 11 at 150 mM and 10 mM EDTA, and allowed to react at 25° C. for 3 hours.
Peptide production was examined in the case of using […] for the carboxy component or β-amino acid for the amine component.

[2] = system: enzyme derived from Sphingobacterium sp. strain FERM BP-8124 (SP-Sepharose HP fraction enzyme); assay: Enzyme substrate specificity (11), (12): peptide production; format: biochemical; design: key to Produced peptide (Table 15-1) / Produced peptide (Table 15-3) / Produced peptide (Table 15-4): +: those peptides for which production was confirmed but which were unable to be quantified due to the absence of a standard; a trace amount; conditions: carboxy component 100 mM, 0.33 units enzyme, pH 9.0, 25° C., 1.5 hours; for Produced peptide (Table 15-4): amides and methylamine; for Produced peptide (Table 15-2): L-Gln 150 mM
Excerpt: Substrate specificity was examined for enzyme derived from Sphingobacterium sp. strain FERM BP-8124 (Depositary institution: the independent administrative corporation, National Institute of Advanced Industrial Science and Technology, International Patent Organism Depositary, Address of depositary institution: Chuo Dai-6, 1-1 Higashi 1-Chome, Tsukuba-shi, Ibaraki-ken, Japan, International deposit date: […] The amounts of various peptides formed in this reaction are shown in Table 15. The “+” mark indicates those peptides for which production was confirmed but which were unable to be quantified due to the absence of a standard, while “tr” indicates a trace amount. Furthermore, Tween-80 was added to the reaction system to a final concentration of 0.1% in the case of using L-Tyr-OMe. In addition, hydrochloride salts were used for all carboxy components. Substrate specificity with respect to oligopeptide production was examined for enzyme derived from Sphingobacterium sp. strain FERM BP-8124 (Depositary institution: the independent administrative corporation, National Institute of Advanced Industrial Science and Technology, International Patent Organism Depositary, Address of depositary institution: Chuo Dai-6, 1-1 Higashi 1-Chome, Tsukuba-shi, Ibaraki-ken, Japan, International deposit date: […] The amounts of each oligopeptide formed in this reaction are shown in Table 16. Furthermore, hydrochloride salts were used for all the carboxy components.

[3] = 100 mM L-alanine methyl ester hydrochloride, L-amino acid 150 mM
[4] = amino acid methyl ester hydrochloride 100 mM, methylamine 150 mM
[5] = L-amino acid methyl ester hydrochloride 100 mM, 150 mM L-glutamine
[6] = L-amino acid methyl ester hydrochloride 100 mM, L-amino acid 150 mM
[7] = L-amino acid amide hydrochloride as carboxy component 100 mM, L-amino acid 150 mM

| Molecule | Formed peptide [1, 5] | Produced peptide (Table 15-2) [2] [mM] | Formed peptide [1, 6] [mM] | Produced peptide (Table 15-3) ([2]; amine component 150 mM) | further results |
| --- | --- | --- | --- | --- | --- |
| C[C@H](N)C(=O)N1CCC[C@H]1C(=O)O [L-Ala-L-Pro] (H-Ala-Pro-OH) |  |  |  |  | Formed peptide [1, 3]: tr; Produced peptide (Table 15-1) ([2]; amine component 150 mM): 1.5 mM |
| C[C@H](N)C(=O)N[C@H](C(=O)O)[C@@H](C)O [L-Ala-L-Thr] (H-Ala-Thr-OH) |  |  |  |  | Formed peptide [1, 3]: 53.9 mM; Produced peptide (Table 15-1) ([2]; amine component 150 mM): 47.3 mM |
| C[C@H](N)C(=O)N[C@@H](Cc1c[nH]c2ccccc12)C(=O)O [L-Ala-L-Trp] (H-Ala-Trp-OH) |  |  |  |  | Formed peptide [1, 3]: 53.9 mM; Produced peptide (Table 15-1) ([2]; amine component 150 mM): 46.0 mM |
| C[C@H](N)C(=O)N[C@@H](Cc1ccc(O)cc1)C(=O)O [L-Ala-L-Tyr] (H-Ala-Tyr-OH) |  |  |  |  | Formed peptide [1, 3]: 17.6 mM; Produced peptide (Table 15-1) ([2]; amine component 150 mM): 11.1 mM |
| CC(C)[C@H](NC(=O)[C@H](C)N)C(=O)O [L-Ala-L-Val] (H-Ala-Val-OH) |  |  |  |  | Formed peptide [1, 3]: 20.8 mM; Produced peptide (Table 15-1) ([2]; amine component 150 mM): 10.9 mM |
| CNC(=O)C(C)N [L-Ala-methylamine] |  |  |  |  | Formed peptide [1, 4]: 0.3 mM; Produced peptide (Table 15-4) ([2]; amine component 150 mM): 0.6 mM |
| NC(=O)CC[C@H](NC(=O)[C@@H](N)CCCN=C(N)N)C(=O)O [L-Arg-L-Gln] (H-Arg-Gln-OH) | 7.1 mM | 17.2 |  |  |  |
| CSCC[C@H](NC(=O)[C@@H](N)CCCN=C(N)N)C(=O)O [L-Arg-L-Met] (H-Arg-Met-OH) |  |  | 0.7 | tr |  |
| NC(N)=NCCC[C@H](N)C(=O)N[C@@H](Cc1ccccc1)C(=O)O [L-Arg-L-Phe] |  |  | 1.9 | tr |  |
| NC(N)=NCCC[C@H](N)C(=O)N[C@@H](CO)C(=O)O [L-Arg-L-Ser] (H-Arg-Ser-OH) |  |  | 3.6 | 2.2 mM |  |
| NC(=O)CC[C@H](NC(=O)[C@@H](N)CCC(N)=O)C(=O)O [L-Gln-L-Gln] (H-Gln-Gln-OH) | 0.3 mM | 0.1 |  |  |  |
| CC[C@H](C)[C@H](N)C(=O)N[C@@H](CCC(N)=O)C(=O)O [L-Ile-L-Gln] (H-Ile-Gln-OH) | 8.4 mM | 6.4 |  |  |  |
| CC[C@H](C)[C@H](N)C(=O)N[C@@H](Cc1ccccc1)C(=O)O [L-Ile-L-Phe] (H-Ile-Phe-OH) |  |  | 5.2 | 1.5 mM |  |
| CC[C@H](C)[C@H](N)C(=O)N[C@@H](CO)C(=O)O [L-Ile-L-Ser] (H-Ile-Ser-OH) |  |  | 17.2 | 17.3 mM |  |
| CSCC[C@H](N)C(=O)N[C@@H](CCC(N)=O)C(=O)O [L-Met-L-Gln] (H-Met-Gln-OH) | 12.0 mM | 32.6 |  |  |  |
| NC(=O)CC[C@H](NC(=O)[C@@H](N)Cc1ccccc1)C(=O)O [L-Phe-L-Gln] | 0.9 mM | 0.8 |  |  | Formed peptide [1, 7]: 0.2 mM |

| Molecule | Formed peptide [1, 5] | Produced peptide (Table 15-2) [2] [mM] | Formed peptide [1, 6] [mM] | Produced peptide (Table 15-3) ([2]; amine component 150 mM) | further results |
| --- | --- | --- | --- | --- | --- |
| NC(=O)CC[C@H](NC(=O)[C@@H]1CCCN1)C(=O)O [L-Pro-L-Gln] (H-Pro-Gln-OH) | 2.2 mM | 1.8 |  |  |  |
| NC(=O)CC[C@H](NC(=O)[C@@H](N)CO)C(=O)O [L-Ser-L-Gln] (H-Ser-Gln-OH) | 24.0 mM | 12.9 |  |  |  |
| CSCC[C@H](NC(=O)[C@@H](N)CO)C(=O)O [L-Ser-L-Met] (H-Ser-Met-OH) |  |  | 12.5 | 7.6 mM |  |
| N[C@@H](CO)C(=O)N[C@@H](Cc1ccccc1)C(=O)O [L-Ser-L-Phe] |  |  | 20.3 | 4.3 mM |  |
| C[C@@H](O)[C@H](N)C(=O)NCC(=O)O [L-Thr-Gly] (H-Thr-Gly-OH) |  |  | 9.4 | 0.4 mM |  |
| C[C@H](NC(=O)[C@@H](N)[C@@H](C)O)C(=O)O [L-Thr-L-Ala] (H-Thr-Ala-OH) |  |  | 9.4 | 5.8 mM |  |
| C[C@@H](O)[C@H](N)C(=O)N[C@@H](CCC(N)=O)C(=O)O [L-Thr-L-Gln] (H-Thr-Gln-OH) | 81.9 mM | 36.1 |  |  | Formed peptide [1, 7]: 0.3 mM |
| CSCC[C@H](NC(=O)[C@@H](N)[C@@H](C)O)C(=O)O [L-Thr-L-Met] (H-Thr-Met-OH) |  |  | 38.6 | 28.9 mM |  |
| CC(C)[C@H](NC(=O)[C@@H](N)[C@@H](C)O)C(=O)O [L-Thr-L-Val] (H-Thr-Val-OH) |  |  | 0.7 | 1.3 mM |  |
| CNC(=O)[C@@H](N)[C@@H](C)O [L-Thr-methylamine] |  |  |  |  | Formed peptide [1, 4]: 0.2 mM; Produced peptide (Table 15-4) ([2]; amine component 150 mM): 0.3 mM |
| NC(=O)CC[C@H](NC(=O)[C@@H](N)Cc1ccc(O)cc1)C(=O)O [L-Tyr-L-Gln] (H-Tyr-Gln-OH) | 3.4 mM | 0.6 |  |  |  |
| CC(C)[C@H](N)C(=O)N[C@@H](CCC(N)=O)C(=O)O [L-Val-L-Gln] (H-Val-Gln-OH) | 15.4 mM | 8.2 |  |  |  |
| CC(C)[C@H](N)C(=O)N[C@@H](Cc1ccccc1)C(=O)O [L-Val-L-Phe] (H-Val-Phe-OH) |  |  | 6.1 | 1.0 mM |  |
| CC(C)[C@H](N)C(=O)N[C@@H](CO)C(=O)O [L-Val-L-Ser] (H-Val-Ser-OH) |  |  | 30.8 | 31.9 mM |  |
| NC(=O)CC[C@H](NC(=O)[C@@H](N)CC(=O)O)C(=O)O [α-L-Asp-L-Gln] (H-Asp-Gln-OH) | tr | 0.05 |  |  |  |
| Gly-L-Ala-L-Tyr |  |  |  |  | Produced peptide ([1]; L-amino acid ester 100 mM, peptide (amine component) 150 mM): 1.7 mM; Produced peptide (Table 16, oligopeptide) ([2]; amine component 150 mM): 0.6 mM |
